In patent US12007399B2, “Method of identifying and treating premature infants at risk for BPD” (Mallinckrodt Pharmaceuticals Ireland Limited, priority 2014, dated 2024):

Tests used:
[1] = system: preterm infants less than 30 weeks gestational age requiring mechanical ventilation or positive pressure support; test: Multi-center, double blind, placebo-controlled randomized clinical trial of iNO for prevention of BPD; assay type: in vivo, human
Text: It has been discovered that certain biomarkers present in premature infants are predictive of the risk of developing BPD and/or the likelihood of a therapeutic response to iNO to prevent BPD. As used herein, the term “therapeutic response to iNO” means that iNO administration increases the rate of survival without bronchopulmonary dysplasia (BPD) at 36 weeks of post menstrual age compared to the rate of survival […] at 36 weeks of post menstrual age in an untreated premature infant population. As used herein, the term “premature infant”, “preterm infant” and the like means infants born at less than 30 weeks gestational age. The biomarkers identified are of three types: a) the concentration of metabolites of NO, such as nitrite and nitrate, in blood or plasma, b) the concentration of NO in exhaled air, and c) the presence or absence of a mutation in the eNOS gene that decreases endogenous NO production, or any combination thereof.
A multi-center, double blind, placebo-controlled randomized clinical trial was conducted to examine the efficacy of iNO in preterm infants less than 30 weeks gestational age and less than 1250 grams who required mechanical ventilation or positive pressure support on days 5 to 14 after birth. […]

[2] = LC/MS assay of total plasma nitrite and nitrate (NOx) in trial subjects; assay type: in vivo, human; conditions: per subject, nitric oxide treatment arm
Method: Because of the challenge to measure free NO in systemic circulation, the PK assessment was done via plasma concentration data of NOx (nitrite and nitrate). In addition, methemoglobin (another metabolite of NO) was used as a secondary variable for PK evaluation. This evaluation was done to understand the relationship between pharmacokinetic behavior of iNO and clinical outcomes. The sampling protocol included pre-treatment time points (less than 2 hours before initiation of NO dosing), as well as a variety of time points during iNO therapy and after discontinuation of iNO therapy.
A liquid chromatographic/mass […] (LC/MS) assay method was developed and qualified for measurement NOx in human plasma. The quantitation of NOx was performed using the ^15N-stable isotope labeled nitrate as an internal standard. Nitrate reductase and NADH was added to the samples for enzymatic reduction of nitrate to nitrite in plasma. Upon completion of the reduction reaction, acetone was added to precipitate plasma proteins. The alkylating reagent, pentafluorobenzyl bromide (PFBBr), was subsequently added to the samples to convert nitrite to a chemically stable pentafluorobenzyl derivative. After completion of derivatization, plasma supernatant was injected into the LC/MS for analysis. Plasma concentrations of total nitrite and nitrate were measured and reported as NOx using this assay method. […]

[3] = system: mice with eNOS deficiency; conditions: inhaled; cited from earlier work
[4] = system: premature infants between 7 and 21 days of age requiring ventilator support; conditions: decreasing concentrations from 20 ppm, minimum of 24 days; cited from earlier work
[5] = in vivo; cited from earlier work

For `[N]=O` [NITRIC OXIDE, nitric oxide], the “Efficacy of iNO treatment” value ([1]; subjects having an average NOx concentration of about 20 or less) was “therapeutically effective”, the “Efficacy of iNO treatment” value ([1]; subjects with NOx levels from 62.3 uM to 184 uM) was “not effective” and the “Lab Test Result (plasma NOx, total nitrite and nitrate)” value [2] was “<LLOQ”. The “Alveolar and vascular growth” value [3] was “stimulated alveolar and vascular growth”, the Pulmonary outcome [4] was “improves the pulmonary outcome” and the “Short term adverse effects” value [4] was “no apparent short term adverse effects”. The “Time before steady-state methemoglobin levels are attained” value [5] was ≥ 8 h.
